Measurements taken from a compilation of properties of binary mixtures (doi:10.1007/s10953-018-0732-1).

Test: xn = mol fraction of the nth substance listed
Settings: 101.3 kPa

c1c[nH]cn1 + CC(C)C[P+](C)(CC(C)C)CC(C)C.Cc1ccc(S(=O)(=O)[O-])cc1
viscosity (303.09 K, x2 = 0.5): 357 mPa·s
viscosity (323.07 K, x2 = 0.5): 100 mPa·s
viscosity (333.11 K, x2 = 0.5): 63 mPa·s
viscosity (343.1 K, x2 = 0.5): 43.3 mPa·s
viscosity (353.08 K, x2 = 0.5): 32.8 mPa·s

c1c[nH]cn1 + CCCC[N+]1(C)CCCC1.O=S(=O)([N-]S(=O)(=O)C(F)(F)F)C(F)(F)F
viscosity (323.15 K, x2 = 0.5): 18.6 mPa·s
viscosity (333.15 K, x2 = 0.5): 13.5 mPa·s
viscosity (343.15 K, x2 = 0.5): 9.7 mPa·s
viscosity (353.15 K, x2 = 0.5): 7.9 mPa·s

c1c[nH]cn1 + CCCCCC[N+]1(C)CCCC1.O=S(=O)([N-]S(=O)(=O)C(F)(F)F)C(F)(F)F
viscosity (323.15 K, x2 = 0.5): 23.8 mPa·s
viscosity (333.15 K, x2 = 0.5): 16 mPa·s

CCCC[P+](CCCC)(CCCC)CCCC.CS(=O)(=O)[O-] + c1c[nH]cn1
viscosity (303.05 K, x1 = 0.5): 176 mPa·s
viscosity (323.05 K, x1 = 0.5): 61 mPa·s
viscosity (333.05 K, x1 = 0.5): 40.2 mPa·s
viscosity (343.05 K, x1 = 0.5): 29.5 mPa·s
